According to publication PMC12276029, “Structure−Activity Relationships of New 1‐Aryl‐1H‐Indole Derivatives as SARS‐CoV‐2 Nsp13 Inhibitors” (Chemmedchem, 2025):

How the values were obtained:
SARS-CoV-2 nsp13 [1] = target: T1, SARS-CoV-2 nsp13 (Severe acute respiratory syndrome coronavirus 2, UniProt P0DTD1); experiment: SARS-CoV-2 nsp13 unwinding-associated activity assay; format: biochemical; details: for IC50: SARS-CoV-2 nsp13-associated unwinding activity, means ± SD from two experiments in triplicate, read-out: Activity in enzyme assay IC50 Unwinding BSA-TCEP; for remaining activity at 30 µM: given in brackets beside IC50 >30 μM, read-out: Percentage of enzymatic residual activity, unwinding
SARS-CoV-2 nsp13 [2] = target: T1, SARS-CoV-2 nsp13; experiment: SARS-CoV-2 nsp13 ATPase-associated activity assay; format: biochemical; details: for Activity in enzyme assay IC50 ATPase BSA-TCEP / IC50: SARS-CoV-2 nsp13-associated ATPase activity, means ± SD from two experiments in triplicate; for IC50: read-out: Activity in enzyme assay IC50 ATPase BSA-TCEP; for remaining activity at 30 µM: given in brackets beside IC50 >30 μM, read-out: Percentage of enzymatic residual activity, ATPase
SARS-CoV-2 = details: read-out: EC50 antiviral activity; cited from earlier work
in vitro = details: African green monkey

Compound | IC50 (SARS-CoV-2 nsp13 [1]) [µM] | IC50 (SARS-CoV-2 nsp13 [2]) [µM] | other results
O=C(O)/C(O)=C/C(=O)c1cn(-c2ccc(F)cc2)c2ccccc12 [Compound 7e] | 7.03 ± 1.94 | > 30 | Activity in enzyme assay IC50 ATPase BSA-TCEP (SARS-CoV-2 nsp13 [2]): no activity; remaining activity at 30 µM (SARS-CoV-2 nsp13 [2]): 99.3%
Cc1ccc(-n2cc(C(=O)/C=C(\O)C(=O)O)c3ccccc32)cc1 [Compound 7b] | 1.27 ± 0.29 | > 30 | Activity in enzyme assay IC50 ATPase BSA-TCEP (SARS-CoV-2 nsp13 [2]): no activity; remaining activity at 30 µM (SARS-CoV-2 nsp13 [2]): 70.8%
Cc1ccc(-n2cc(/C=C/C(=O)/C=C(\O)C(=O)O)c3ccccc32)cc1 [Compound 5b] | 11.7 ± 0.94 | 5.12 ± 0.38 | –
CCOC(=O)/C(O)=C/C(=O)/C=C/c1cn(-c2ccc(C)cc2)c2ccccc12 [Compound 6b] | 13.9 ± 1.5 | 8.64 ± 0.77 | –
CC(C)=CCc1c(O)cc(O)c2c(=O)cc(-c3ccc(O)cc3)oc12 [licoflavone C] | – | – | EC50 (SARS-CoV-2): > 100 µM
CCOC(=O)/C(O)=C/C(=O)c1cn(-c2ccccc2)c2ccccc12 [Compound 8d] | 13.3 ± 3.45 | 11.3 ± 0.89 | –
CC[C@@]1(O)C(=O)OCc2c1cc1n(c2=O)Cc2cc3ccccc3nc2-1 [Camptothecin, reference compound] | – | – | CC50 (in vitro): 11.1 ± 0.16 µM
O=C(O)/C(O)=C/C(=O)c1cn(-c2ccccc2)c2ccccc12 [Compound 7d] | > 30 | > 30 | remaining activity at 30 µM (SARS-CoV-2 nsp13 [1]): 75.1%; remaining activity at 30 µM (SARS-CoV-2 nsp13 [2]): 102%
CCOC(=O)/C(O)=C/C(=O)c1cn(-c2ccc(F)cc2)c2ccccc12 [Compound 8e] | 12.9 ± 0.59 | 16.4 ± 3.1 | –
N#Cc1ccc(-n2cc(/C=C/C(=O)/C=C(\O)C(=O)O)c3ccccc32)cc1 [Compound 5g] | 10 ± 2.07 | 13.6 ± 3.8 | –
CCOC(=O)/C(O)=C/C(=O)c1cn(-c2ccc(OC)cc2)c2ccccc12 [Compound 8a] | 18.8 ± 0.22 | 19.06 ± 0.14 | –
COc1ccc(-n2cc(C(=O)/C=C(\O)C(=O)O)c3ccccc32)cc1 [Compound 7a] | > 30 | > 30 | remaining activity at 30 µM (SARS-CoV-2 nsp13 [1]): 63.9%; remaining activity at 30 µM (SARS-CoV-2 nsp13 [2]): 68.7%
O=C(/C=C(\O)C(=O)O)/C=C/c1cn(-c2ccc(Cl)cc2)c2ccccc12 [Compound 5f] | 2.64 ± 0.61 | 20.95 ± 0.14 | –
CCOC(=O)/C(O)=C/C(=O)c1cn(-c2ccc(C(C)C)cc2)c2ccccc12 [Compound 8c] | 8.04 ± 2.1 | 15.7 ± 0.1 | –
